Reference: ChEMBL document CHEMBL1129861, “SAR for MHC class II binding tetrapeptides: Correlation with potential binding site” (Bioorg Med Chem Lett, 1997)
Residues, ends and D or L forms follow the SMILES beside them. *: point of attachment. Ethoxycarbonyl = CCOC(=O)*

Tests used:
[1] = target: HLA-DRB1*01:01; experiment: Inhibitory concentration to inhibit the binding of biotinylated rat myelin basic protein peptide (RMBP90-102) against DR1 allele of class II MHC for 20 min
[2] = target: HLA-DRB1*01:01; experiment: Inhibitory concentration required to inhibit the binding of biotinylated rat myelin basic protein peptide (RMBP90-102) against DR1 allele of class II for 5 hr
[3] = species on record: Rattus norvegicus; experiment: Inhibitory concentration of compound to inhibit the binding of biotinylated rat myelin basic protein peptide (RMBP90-102) against DR4 allele of class II for 20 min; format: functional
[4] = species on record: Rattus norvegicus; experiment: Inhibitory concentration of compound to inhibit the binding of biotinylated rat myelin basic protein peptide (RMBP90-102) against DR4 allele of class II for 5 hr; format: functional
[5] = species on record: Rattus norvegicus; experiment: Inhibitory concentration of compound to inhibit the binding of biotinylated rat myelin basic protein peptide (RMBP90-102) against DR1 allele of class II for 45 min; format: functional

SMILES	IC50 [1] [nM]	IC50 [2] [nM]	IC50 [3] [nM]	IC50 [4] [nM]	IC50 [5] [nM]
CCOC(=O)N[C@H](Cc1ccc(OC(C)=O)cc1)C(=O)N[C@H](C(=O)N[C@@H](C)C(=O)N[C@@H](CC(C)C)C(N)=O)C(C)C	240	1900	–	–	–
CCOC(=O)N[C@@H](Cc1ccccc1)C(=O)N[C@H](C(=O)N[C@@H](C)C(=O)N[C@@H](CC(=O)O)C(N)=O)C(C)C (Ethoxycarbonyl-FVAD-NH2)	–	–	1200	50000	–
CCOC(=O)N[C@H](Cc1cccnc1)C(=O)N[C@H](C(=O)N[C@@H](C)C(=O)N[C@@H](CC(C)C)C(N)=O)C(C)C	5300	28000	–	–	–
CCOC(=O)N[C@H](CSCc1ccccc1)C(=O)N[C@H](C(=O)N[C@@H](C)C(=O)N[C@@H](CC(C)C)C(N)=O)C(C)C	270	7000	–	–	–
CCOC(=O)N[C@H](Cc1ccc(OC)cc1)C(=O)N[C@H](C(=O)N[C@@H](C)C(=O)N[C@@H](CC(C)C)C(N)=O)C(C)C	46	180	–	–	–
CCOC(=O)N[C@@H](Cc1ccccc1)C(=O)N[C@H](C(=O)N[C@@H](C)C(=O)N[C@@H](CC(C)C)C(N)=O)C(C)C (Ethoxycarbonyl-FVAL-NH2)	–	–	8200	–	–
CCOC(=O)N[C@H](Cc1ccc(Cl)cc1)C(=O)N[C@H](C(=O)N[C@@H](C)C(=O)N[C@@H](CC(C)C)C(N)=O)C(C)C	19	73	–	–	–
CC(C)C[C@H](NC(=O)[C@H](C)NC(=O)[C@@H](NC(=O)[C@@H](N)Cc1ccccc1)C(C)C)C(N)=O (H-FVAL-NH2)	–	–	–	–	1800
CCOC(=O)N[C@H](CC(=O)c1ccccc1)C(=O)N[C@H](C(=O)N[C@@H](C)C(=O)N[C@@H](CC(C)C)C(N)=O)C(C)C	5700	45000	–	–	–
